Tests used:
bedstraw = test: Test B pre/postemergence bedstraw; format: in vivo, Galium aparine
Summary of the method: (§1)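 Herbicidal effect was estimated by eye on a ten-point control scale after plants spent twelve to sixteen days in a greenhouse following soil or foliar treatment. Foliar sprays targeted plants at one to four leaves; all doses were formulated in a non-phytotoxic solvent with surfactant.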

blackgrass = test: Test B pre/postemergence blackgrass; format: in vivo, Alopecurus myosuroides
Summary of the method: as §1

surinam grass = test: Test B pre/postemergence surinam grass; format: in vivo, Brachiaria decumbens; conditions: Postemergence
Summary of the method: as §1

cocklebur = test: Test B pre/postemergence cocklebur; format: in vivo, Xanthium strumarium
Summary of the method: as §1

corn = test: Test B pre/postemergence corn; format: in vivo, Zea mays
Summary of the method: as §1

crabgrass = test: Test B pre/postemergence crabgrass; format: in vivo, Digitaria sanguinalis
Summary of the method: as §1

giant foxtail = test: Test B pre/postemergence giant foxtail; format: in vivo, Setaria faberii
Summary of the method: as §1

morningglory = test: Test B pre/postemergence morningglory; format: in vivo, Ipomoea hederacea
Summary of the method: as §1

pigweed = test: Test B pre/postemergence pigweed; format: in vivo, Amaranthus retroflexus
Summary of the method: as §1

rape = test: Test B pre/postemergence rape; format: in vivo, Brassica napus
Summary of the method: as §1

soybean = test: Test B pre/postemergence soybean; format: in vivo, Glycine max
Summary of the method: as §1

sugar beet = test: Test B pre/postemergence sugar beet; format: in vivo, Beta vulgaris
Summary of the method: as §1

velvetleaf = test: Test B pre/postemergence velvetleaf; format: in vivo, Abutilon theophrasti
Summary of the method: as §1

wheat = test: Test B pre/postemergence wheat; format: in vivo, Triticum aestivum
Summary of the method: as §1

wild oat = test: Test B pre/postemergence wild oat; format: in vivo, Avena fatua
Summary of the method: as §1

purple nutsedge = test: Test B pre/postemergence purple nutsedge; format: in vivo, Cyperus rotundus
Summary of the method: as §1

[1] = Postemergence, Rate 62 g/ha, scale 0 to 10, 0 is no effect, 10 is complete control
[2] = Postemergence, Rate 125 g/ha, scale of 0 to 10 where 0 is no effect and 10 is complete control
[3] = Preemergence, Rate 125 g/ha, scale of 0 to 10 where 0 is no effect and 10 is complete control
[4] = Preemergence, Rate 250 g/ha, scale 0 (no effect) to 10 (complete control)
[5] = Rate 62 g/ha, Preemergence, scale 0 to 10
[6] = Rate 250 g/ha, Postemergence, scale 0 to 10, 0 is no effect, 10 is complete control
[7] = Rate 500 g/ha, Postemergence, scale 0 to 10, 0 is no effect, 10 is complete control
[8] = Rate 500 g/ha, Preemergence, scale 0 to 10 (0 no effect, 10 complete control)

Compound: CC(CBr)Cn1c(=O)on(C(=O)N(c2ccc(F)cc2)C(C)C)c1=O (centres unmarked) [Compound 752]
- Plant response rating, Bedstraw (bedstraw; [1]): 0
- Bedstraw plant response rating (bedstraw; [2]): 0
- Plant response rating, Bedstraw (bedstraw; [3]): 10
- Bedstraw plant response rating (bedstraw; [4]): 10
- Bedstraw plant response rating (bedstraw; [5]): 0
- Bedstraw plant response rating (bedstraw; [6]): 2
- Bedstraw plant response rating (bedstraw; [7]): 2
- Bedstraw plant response rating (bedstraw; [8]): 10
- Plant response rating, Blackgrass (blackgrass; [1]): 0
- Blackgrass plant response rating (blackgrass; [2]): 2
- Plant response rating, Blackgrass (blackgrass; [3]): 9
- Blackgrass plant response rating (blackgrass; [4]): 9
- Blackgrass plant response rating (blackgrass; [5]): 4
- Blackgrass plant response rating (blackgrass; [6]): 6
- Blackgrass plant response rating (blackgrass; [7]): 6
- Blackgrass plant response rating (blackgrass; [8]): 10
- Plant response rating, B. signalgrass (surinam grass; Rate 62 g/ha, scale 0 to 10, 0 is no effect, 10 is complete control): 0
- B. signalgrass plant response rating (surinam grass; Rate 125 g/ha, scale of 0 to 10 where 0 is no effect and 10 is complete control): 0
- B. signalgrass plant response rating (surinam grass; Rate 250 g/ha, scale 0 to 10, 0 is no effect, 10 is complete control): 2
- B. signalgrass plant response rating (surinam grass; Rate 500 g/ha, scale 0 to 10, 0 is no effect, 10 is complete control): 6
- Plant response rating, Cocklebur (cocklebur; [1]): 0
- Cocklebur plant response rating (cocklebur; [2]): 3
- Plant response rating, Cocklebur (cocklebur; [3]): 0
- Cocklebur plant response rating (cocklebur; [4]): 0
- Cocklebur plant response rating (cocklebur; [5]): 0
- Cocklebur plant response rating (cocklebur; [7]): 3
- Cocklebur plant response rating (cocklebur; [8]): 0
- Plant response rating, Corn (corn; [1]): 0
- Corn plant response rating (corn; [2]): 0
- Plant response rating, Corn (corn; [3]): 0
- Corn plant response rating (corn; [4]): 0
- Corn plant response rating (corn; [5]): 0
- Corn plant response rating (corn; [6]): 0
- Corn plant response rating (corn; [7]): 0
- Corn plant response rating (corn; [8]): 0
- Plant response rating, Crabgrass (crabgrass; [1]): 3
- Crabgrass plant response rating (crabgrass; [2]): 3
- Plant response rating, Crabgrass (crabgrass; [3]): 9
- Crabgrass plant response rating (crabgrass; [4]): 10
- Crabgrass plant response rating (crabgrass; [5]): 9
- Crabgrass plant response rating (crabgrass; [6]): 8
- Crabgrass plant response rating (crabgrass; [7]): 10
- Crabgrass plant response rating (crabgrass; [8]): 10
- Giant foxtail plant response rating (giant foxtail; [2]): 9
- Plant response rating, Giant foxtail (giant foxtail; [3]): 10
- Giant foxtail plant response rating (giant foxtail; [4]): 10
- Giant foxtail plant response rating (giant foxtail; [5]): 10
- Giant foxtail plant response rating (giant foxtail; [6]): 9
- Giant foxtail plant response rating (giant foxtail; [7]): 9
- Giant foxtail plant response rating (giant foxtail; [8]): 10
- Plant response rating, Morningglory (morningglory; [1]): 2
- Morningglory plant response rating (morningglory; [2]): 2
- Plant response rating, Morningglory (morningglory; [3]): 0
- Morningglory plant response rating (morningglory; [4]): 0
- Morningglory plant response rating (morningglory; [5]): 0
- Morningglory plant response rating (morningglory; [6]): 8
- Morningglory plant response rating (morningglory; [7]): 9
- Morningglory plant response rating (morningglory; [8]): 0
- Plant response rating, Redroot pigweed (pigweed; [1]): 0
- Redroot pigweed plant response rating (pigweed; [2]): 5
- Plant response rating, Redroot pigweed (pigweed; [3]): 2
- Redroot pigweed plant response rating (pigweed; [4]): 10
- Redroot pigweed plant response rating (pigweed; [5]): 0
- Redroot pigweed plant response rating (pigweed; [6]): 5
- Redroot pigweed plant response rating (pigweed; [7]): 9
- Redroot pigweed plant response rating (pigweed; [8]): 10
- Plant response rating, Rape (rape; [1]): 2
- Rape plant response rating (rape; [2]): 2
- Plant response rating, Rape (rape; [3]): 3
- Rape plant response rating (rape; [4]): 5
- Rape plant response rating (rape; [5]): 0
- Rape plant response rating (rape; [6]): 4
- Rape plant response rating (rape; [7]): 4
- Rape plant response rating (rape; [8]): 5
- Plant response rating, Soybean (soybean; [1]): 4
- Plant response rating, Soybean (soybean; [3]): 0
- Soybean plant response rating (soybean; [4]): 0
- Soybean plant response rating (soybean; [5]): 0
- Soybean plant response rating (soybean; [6]): 6
- Soybean plant response rating (soybean; [7]): 6
- Soybean plant response rating (soybean; [8]): 0
- Plant response rating, Sugarbeets (sugar beet; [1]): 3
- Plant response rating, Sugarbeets (sugar beet; [3]): 0
- Sugarbeets plant response rating (sugar beet; [4]): 3
- Sugarbeets plant response rating (sugar beet; [5]): 0
- Sugarbeets plant response rating (sugar beet; [6]): 3
- Sugarbeets plant response rating (sugar beet; [7]): 3
- Sugarbeets plant response rating (sugar beet; [8]): 3
- Plant response rating, Velvetleaf (velvetleaf; [1]): 0
- Plant response rating, Velvetleaf (velvetleaf; [3]): 0
- Velvetleaf plant response rating (velvetleaf; [4]): 0
- Velvetleaf plant response rating (velvetleaf; [5]): 0
- Velvetleaf plant response rating (velvetleaf; [6]): 2
- Velvetleaf plant response rating (velvetleaf; [7]): 2
- Velvetleaf plant response rating (velvetleaf; [8]): 2
- Plant response rating, Wheat (wheat; [1]): 0
- Plant response rating, Wheat (wheat; [3]): 0
- Wheat plant response rating (wheat; [4]): 0
- Wheat plant response rating (wheat; [5]): 0
- Wheat plant response rating (wheat; [6]): 5
- Wheat plant response rating (wheat; [7]): 5
- Wheat plant response rating (wheat; [8]): 0
- Plant response rating, Wild oats (wild oat; [1]): 0
- Plant response rating, Wild oats (wild oat; [3]): 0
- Wild oats plant response rating (wild oat; [4]): 7
- Wild oats plant response rating (wild oat; [5]): 0
- Wild oats plant response rating (wild oat; [6]): 0
- Wild oats plant response rating (wild oat; [7]): 0
- Wild oats plant response rating (wild oat; [8]): 8
- Plant response rating, Nutsedge (purple nutsedge; [1]): 0
- Nutsedge plant response rating (purple nutsedge; [2]): 0
- Plant response rating, Nutsedge (purple nutsedge; [3]): 0
- Nutsedge plant response rating (purple nutsedge; [5]): 0
- Nutsedge plant response rating (purple nutsedge; [6]): 0
- Nutsedge plant response rating (purple nutsedge; [7]): 0
- Nutsedge plant response rating (purple nutsedge; [8]): 0
